Results as given in patent US20260265280A1, “Prevention/Treatment of Ischemic Reperfusion Injury” (Rev Therapeutics, priority 2023, published 2026).
Values after ≈ are worked out from the molar mass of the structure shown. Values joined by “and” are separate entries in the source; they are usually repeats but may differ in a detail not shown here. Identical values can stand only once. Marks after values point to notes of the source that are not given here. Each block holds one molecule with its values, some of them ahead of it.

Legend:
[1] = system: kidney ischemia-reperfusion injury; test: Rat bilateral short-warm kidney ischemia-reperfusion injury (IRI / AKI) system; assay type: in vivo, Male outbred Sprague-Dawley rats; settings: oral 103 mg/kg
Method: Brief description of AKI Study: The study examined rats given oral compound Q8 three times at −1 hour, +10 hours, and 24 h post-lesion, or nine times over four days, at −1 hr, +10 hours and every morning and evening. The dose chosen was 103 mg/kg (0.134 mmol/kg). Control groups include a sham operation group receiving drug vehicle, peritoneum open but no ligature application to the kidney artery. A vehicle group in which the artery ligature was applied served as the lesion group. […] This chosen amount is also between the IC95 and the IC50 inhibition of Jnk activity in cell extracts and human PBMCs (Krenitsky et al. Bioorganic & Medicinal Chemistry Letters, 22(3), pp. 1433-1438). It is also similar to the oral Cavg exposure of compound Z at 60 mg/kg, which is an effective dose of compound Z in rat models of AKI (Grynberg et al. Am J Pathol 191:817-828, 2021).
Rat bilateral short-warm kidney ischemia-reperfusion injury (“IRI”) system: Male outbred Sprague-Dawley rats (approximately 300 g from the Monash Animal Research Platform), six/group, were anesthetized using ketamine/xylazine, and surgery performed with both renal pedicles clamped for 25 minutes (ischemia) then released (reperfusion) as previously described (Grynberg et al. Am J Pathol 191:817-828, 2021). […]
Staining used rabbit monoclonal antibodies recognizing collagen I (E8F4L, 1 in 400 dilutions; Cell Signaling Technology, Danvers, MA, USA), followed by biotinylated […] (BA-400, 1 in 500 dilutions; Thermo Fisher, Waltham, MA, USA), and the VECTASTAIN® Elite® ABC-HRP Kit (PK-6100). The interstitial collagen I deposition area was assessed in the outer medulla and cortex by image analysis, avoiding medium and large arteries, using cellSens software V1.18 (Olympus, Notting Hill, Victoria, Australia) as previously described (Leong et al. Toxins 13:700, 2021). […]
Statistical Analysis: Data are shown as means±1 SD. Data were analyzed by one-way analysis of variance with the Tukey multiple comparison tests using GraphPad Prism 9.0 software (GraphPad Software, San Diego, CA).

[2] = Thermodynamic solubility assay (shake flask, HPLC-UV) in PBS; assay type: physicochemical; settings: for solubility thermodynamic at 24 h: 25 °C, aqueous buffer, thermodynamic from solid
Method: Solubility Study: The thermodynamic solubility assay employed was the shake flask method followed by HPLC analysis. The method prepared a saturated solution of the compound, followed by an assay of the solution using HPLC and UV detection. […] About 18 mg compound powder was weighed and placed in a 2 mL glass vial, then PBS buffer was introduced into the vial to obtain a 30-60 mg/mL target concentration. This solution was vortexed for 2 minutes. The solutions were incubated and shook on an orbital shaker for 24 hr at room temperature (25±2° C.). About 500 μL solubility solution was transferred into a new MultiScreen filter plate (Membrane of polycarbonate), filtered by millipore vacuum manifold, and collected in the filtrate as the TS solution. The filtrate was diluted with PBS buffer by a factor of 20 fold to make it diluent. Three UV standard solutions (20, 200, 2000 μg/mL) were injected into HPLC from low to high concentration, followed by testing of the diluent. Testing samples were injected in duplicate. The filtrate was analyzed by HPLC equipped with UV, and the solubility was calculated based on acquired peak areas and dilution factors with a standard external method.

[3] = In vivo rat pharmacokinetic studies (cleavage of compounds into compound Z); settings: for Compound Z Present in Plasma at 2 hr After i.p. dose: i.p. dose of compound Qx
Method: Rat pharmacokinetic study samples were used for PK characterization. Male Sprague-Dawley rats weighing 150-300 g were intraperitoneal (ip), intravenous (i.v.) dosed formulated in PBS, pH 7.4. The blood samples at several times post dosing were collected and advanced to plasma preparation with K2EDTA as an anticoagulant.
The blank plasma samples used for the PK characterization control were prepared from undosed rat groups. After IV administration, the amount of parent compound remaining at 0.5 hours after dosing was used as a measure of the cleavage rate. After IP administration, the amount of parent compound remaining at 2 hours after dosing was used as a measure of the cleavage rate. We sought compounds with >90% cleavage.

[4] = system: kidney ischemia-reperfusion injury; settings: oral; Grynberg et al.; cited from earlier work
cJun phosphorylation = settings: human skin; cited from earlier work
[5] = PBS buffer, PBS pH 7.4, shaken 24 hr at room temperature (25±2° C.)
[6] = PBS pH 7.4, shaken 24 hr at room temperature (25±2° C.)
[7] = studied at 1 mg/kg in PBS, linearly scaled to 2 mg/kg equivalent dose

Molecule: O=P([O-])([O-])OCn1/c(=N\c2c(F)cc(F)cc2F)n([C@H]2CCOC2)c2nc(NC3CCC(O)CC3)ncc21.[Na+].[Na+] (stereo partly drawn) [Compound Q8, [[(8Z)-2-[(4-hydroxycyclohexyl)amino]-9-[(3S)-tetrahydrofuran-3-yl]-8-(2,4,6-trifluorophenyl)imino-purin-7-yl]methoxy-sodiooxy-phosphoryl]oxysodium]
reduction of fibrosis component Coll histological staining ([1]; D21 post-lesion): 73%
reduction of tubular damage ([1]; Day 7 post-lesion, PAS stained sections, outer medulla): 65%
reduction of serum/plasma creatinine levels (kidney dysfunction) ([1]; three doses or nine doses over four days, vs. 1D vehicle): 87-88%
improvement in solubility over known compound Z ([2]; PBS): 751 fold
solubility thermodynamic at 24 h [2, 5]: 45600 µg/mL
Compound Qx Present in Plasma at 2 hr After i.p. dose ([3]; studied at 29.8 mg/kg in PBS, linearly scaled to 2 mg/kg equivalent dose): 12^# ng/mL
concentration at 0.5 h ([3]; male, Sprague-Dawley, plasma, intravenous, 1 mg/kg): 21 ng/mL

Molecule: O=P([O-])([O-])OP(=O)([O-])OC1CCC(Nc2ncc3nc(Nc4c(F)cc(F)cc4F)n([C@H]4CCOC4)c3n2)CC1.[Na+].[Na+].[Na+] (stereo partly drawn) [Compound Q9, [Disodiooxyphosphoryloxy-[4-[[9-[(3S)-tetrahydrofuran-3-yl]-8-(2,4,6-trifluoroanilino)purin-2-yl]amino]cyclohexoxy]phosphoryl]oxysodium]
solubility thermodynamic at 24 h [2, 6]: 19400 µg/mL
Compound Qx Present in Plasma at 2 hr After i.p. dose ([3]; studied at 2 mg/kg in PBS): BQL
Compound Qx Present in Plasma at 0.5 hr After i.v. dose [3, 7]: BQL

Molecule: CC(=O)O[C@H]1CC[C@H](Nc2ncc3nc(Nc4c(F)cc(F)cc4F)n([C@H]4CCOC4)c3n2)CC1 [Compound Q10, [4-[[9-[(3S)-Tetrahydrofuran-3-yl]-8-(2,4,6-trifluoroanilino)purin-2-yl]amino]cyclohexyl] acetate]
solubility thermodynamic at 24 h [2, 5]: 75.2 µg/mL

Molecule: CCOC(=O)n1/c(=N\c2c(F)cc(F)cc2F)n([C@H]2CCOC2)c2nc(N[C@H]3CC[C@H](O)CC3)ncc21 [Compound Q11]
solubility thermodynamic at 24 h [2, 5]: < 20 µg/mL

Molecule: C[N+](C)(C)CCOC(=O)O[C@H]1CC[C@H](Nc2ncc3nc(Nc4c(F)cc(F)cc4F)n([C@H]4CCOC4)c3n2)CC1 [Compound Q12, trimethyl-[2-[4-[[9-[(3S)-tetrahydrofuran-3-yl]-8-(2,4,6-trifluoroanilino)purin-2-yl]amino]cyclohexoxy]carbonyloxyethyl]ammonium]
solubility thermodynamic at 24 h [2, 5]: 29600 µg/mL
concentration at 2 h ([3]; male, Sprague-Dawley, plasma, ip, 2 mg/kg): 214 ng/mL

Molecule: Trimethyl-[2-oxo-2-[4-[[9-[(3S)-tetrahydrofuran-3-yl]-8-(2,4,6-trifluoroanilino)purin-2-yl]amino]cyclohexoxy]ethyl]ammonium [Compound Q15]
Thermodynamic Solubility in PBS [2, 6]: 17340 µg/mL
Compound Z Present in Plasma at 2 hr After i.p. dose ([3]; studied at 2 mg/kg in PBS): 26.5 ng/mL
Compound Qx Present in Plasma at 2 hr After i.p. dose ([3]; studied at 2 mg/kg in PBS): 125 ng/mL

Molecule: [4-[[9-[(3S)-Tetrahydro furan-3-yl]-8-(2,4,6-trifluoroanilino)purin-2-yl]amino]cyclohexyl] disodium phosphate [Compound Q7]
compound still present at 2 hrs post-dosing ([3]; 2 hr post-dosing): 30%
Compound Z Present in Plasma at 2 hr After i.p. dose ([3]; studied at 2 mg/kg in PBS): 83.5 ng/mL
Compound Qx Present in Plasma at 2 hr After i.p. dose ([3]; studied at 2 mg/kg in PBS): 36 ng/mL
Compound Z Present in Plasma at 0.5 hr After i.v. dose ([3]; i.v. dose of compound Qx, studied at 1 mg/kg in PBS, linearly scaled to 2 mg/kg equivalent dose): 232 ng/mL
Compound Qx Present in Plasma at 0.5 hr After i.v. dose [3, 7]: 13 ng/mL

Second part, led by results:

solubility thermodynamic at 24 h [2, 5]: < 20 µg/mL
Molecule: CCOC(=O)OC1CCC(Nc2ncc3nc(Nc4c(F)cc(F)cc4F)n([C@H]4CCOC4)c3n2)CC1 (stereo partly drawn) [Compound Q13, Ethyl [4-[[9-[(3S)-tetrahydrofuran-3-yl]-8-(2,4,6-trifluoroanilino)purin-2-yl]amino]cyclohexyl] carbonate]

solubility thermodynamic at 24 h [2, 5]: < 20 µg/mL
Molecule: CN(C)C(=O)O[C@H]1CC[C@H](Nc2ncc3nc(Nc4c(F)cc(F)cc4F)n([C@H]4CCOC4)c3n2)CC1 [Compound Q14, [4-[[9-[(3S)-tetrahydrofuran-3-yl]-8-(2,4,6-trifluoroanilino)purin-2-yl]amino]cyclohexyl] N,N-dimethylcarbamate]

solubility thermodynamic at 24 h [2, 5]: 114 µg/mL
Molecule: CC(=O)OCn1/c(=N\c2c(F)cc(F)cc2F)n([C@H]2CCOC2)c2nc(N[C@H]3CC[C@H](O)CC3)ncc21 [Compound Q16, [(8Z)-2-[(4-hydroxycyclohexyl)amino]-9-[(3S)-tetrahydrofuran-3-yl]-8-(2,4,6-trifluorophenyl)imino-purin-7-yl]methyl acetate]

solubility thermodynamic at 24 h [2, 5]: 60.6 µg/mL (≈ 135 µM)
Molecule: O[C@H]1CC[C@H](Nc2ncc3nc(Nc4c(F)cc(F)cc4F)n([C@H]4CCOC4)c3n2)CC1 [Z, 4-[[9-[(3S)-tetrahydrofuran-3-yl]-8-(2,4,6-trifluoroanilino)purin-2-yl]amino]cyclohexanol]
effective dose in rat models of AKI [4]: 60 mg/kg
plasma concentration that achieved efficacy (suppression of cJun phosphorylation) (cJun phosphorylation): 3.4 uM and 1560 ng/mL
